From PubChem BioAssay AID1645866 (Buhrlage Lab, Dana-Farber Cancer Institute and Novartis …, 2021)
Calls of active or inactive are those of the source.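 The calls were made as follows: active = in confirmatory dose-response testing, peak deubiquitinase inhibition of 30% or more; inactive = the rest.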

Target: Ubiquitin carboxyl-terminal hydrolase 28 (Homo sapiens) (UniProt Q96RU2)
Assay: Concentration-response biochemical assay confirming initial hits as inhibitors of ubiquitin-specific protease 28 (AID 1645866)
Details: purified USP28, ubiquitin-rhodamine fluorescence, 30 min

Chain of Ubiquitin carboxyl-terminal hydrolase 28 (Homo sapiens) (Q96RU2 whole entry, looked up): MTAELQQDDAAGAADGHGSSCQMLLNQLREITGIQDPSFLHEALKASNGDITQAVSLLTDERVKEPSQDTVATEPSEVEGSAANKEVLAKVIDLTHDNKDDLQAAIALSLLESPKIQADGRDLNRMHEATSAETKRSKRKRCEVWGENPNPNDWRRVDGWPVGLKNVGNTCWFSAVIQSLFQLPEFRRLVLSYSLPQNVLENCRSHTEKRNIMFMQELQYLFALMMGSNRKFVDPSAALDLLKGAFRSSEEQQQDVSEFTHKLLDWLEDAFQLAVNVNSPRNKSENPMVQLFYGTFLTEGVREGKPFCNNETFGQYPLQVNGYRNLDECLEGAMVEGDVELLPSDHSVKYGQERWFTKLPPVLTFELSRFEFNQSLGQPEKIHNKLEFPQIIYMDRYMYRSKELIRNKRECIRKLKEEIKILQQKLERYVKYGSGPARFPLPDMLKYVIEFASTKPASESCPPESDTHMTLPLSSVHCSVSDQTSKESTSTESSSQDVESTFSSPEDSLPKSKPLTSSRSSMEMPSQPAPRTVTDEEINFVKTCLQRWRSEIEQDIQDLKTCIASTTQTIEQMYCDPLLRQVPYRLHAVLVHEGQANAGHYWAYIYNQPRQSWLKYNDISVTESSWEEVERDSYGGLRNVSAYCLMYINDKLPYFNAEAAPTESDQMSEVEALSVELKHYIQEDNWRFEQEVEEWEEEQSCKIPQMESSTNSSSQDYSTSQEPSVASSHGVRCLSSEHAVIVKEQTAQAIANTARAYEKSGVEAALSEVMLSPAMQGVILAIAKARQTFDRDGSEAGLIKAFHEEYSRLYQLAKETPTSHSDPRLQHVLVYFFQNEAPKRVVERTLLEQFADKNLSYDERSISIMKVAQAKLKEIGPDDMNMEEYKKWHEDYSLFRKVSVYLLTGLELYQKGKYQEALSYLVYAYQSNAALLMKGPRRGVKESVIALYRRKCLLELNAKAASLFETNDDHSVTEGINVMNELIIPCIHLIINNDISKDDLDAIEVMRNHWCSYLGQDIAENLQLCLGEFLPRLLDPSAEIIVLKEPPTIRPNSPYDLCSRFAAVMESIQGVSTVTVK

IC50 | SMILES
> 50 µM (inactive) | COc1ccc(-c2ccnc(-c3ccc(OCc4cccc(F)c4)cc3)n2)cc1
4.32 µM | CCOc1ccc(NC(=O)Cn2cc(C(=O)c3ccc(Cl)cc3)c(=O)c3cc(OC)ccc32)cc1
> 50 µM (inactive) | O=C(Nc1ccc(N2CCOCC2)cc1)c1ccc(-c2ccc(N3CCCC3)nn2)cc1
26.4 µM | O=C(Cn1c(CSc2ccccc2)nc2ccccc21)Nc1ccccc1F
6.72 µM | COc1cccc(Cn2nc3n(CC(C)C)c(=O)c4ccc(C(=O)NCC(C)C)cc4n3c2=O)c1
15.3 µM | CCC(C)c1ccc(-c2csc(Cn3c(CN4CCN(C)CC4)nc4ccccc4c3=O)n2)cc1 (centres undefined)
1.34 µM | O=C(COc1cccc2c1CCN(Cc1cccnc1)C2=O)Nc1ccc2c(c1)OCCO2
> 50 µM (inactive) | COc1ccc(N2C(=O)[C@@H]3[C@H]4c5ccccc5C=CN4C(C(=O)Nc4ccc5c(c4)OCO5)[C@@H]3C2=O)cc1 (some centres undefined)
> 50 µM (inactive) | Cc1cccc(C(=O)NCc2nc3ccccc3n2Cc2ccccc2C)c1
42.9 µM | COc1ccc(-c2nc(Cn3nnc(C(=O)Nc4ccc(C)cc4C)c3N)c(C)o2)cc1
1.65 µM | CCOc1ccc(-c2ccc3nnc(SCC(=O)Nc4cccc(C(C)=O)c4)n3n2)cc1
3.84 µM | Oc1cc(OCc2cccc(C(F)(F)F)c2)ccc1-c1ccn[nH]1
> 50 µM (inactive) | CC(=O)c1oc2nc3c(c(-c4ccc(Cl)cc4)c2c1N)CCc1ccccc1-3
1 µM | O=C(OCc1ccc(Br)cc1)c1ccc2ccccc2n1
> 50 µM (inactive) | Cc1ccc2cc3c(nc2n1)CCN(Cc1ccc(F)cc1)C3
9.36 µM | COc1ccccc1CNC(=O)c1c(O)c2cnn(-c3cccc(C)c3)c2[nH]c1=O
> 50 µM (inactive) | COc1ccc(-c2nonc2NC(=O)C(c2ccccc2)c2ccccc2)cc1OC
32.6 µM | COc1ccc(-c2cc(-c3ccc(O)cc3)nc(N)c2C#N)cc1OC
0.374 µM | c1ccc2c(Cc3nc(-c4ccncc4)no3)cccc2c1
18.6 µM | Cc1ccc2cc(CNc3ccccc3)c(=O)n(CC(=O)Nc3ccccc3C)c2c1
37.4 µM | COc1ccccc1NC(=O)Nc1ccc(NC(=O)c2ccccc2O)cc1
0.225 µM | O=[N+]([O-])c1ccc(N2CCN(c3ncnc4c3[nH]c3ccc(F)cc34)CC2)cc1
16.5 µM | Cn1cc(NC(=O)Nc2cccc3ccccc23)c2ccccc21
20.1 µM | COCCCNC(=O)c1ccc(Cn2c(=O)c3ccccc3n(CC(=O)Nc3ccc(OC)cc3)c2=O)cc1
0.686 µM | CCOc1ccc2c(c1)c(=O)c(C(=O)c1ccc(C)cc1)cn2CC(=O)Nc1ccc(OC)c(OC)c1

IC50 | SMILES
3.78 µM | CC(c1ccccc1)c1nc(-c2ccc(=O)[nH]c2)no1 (centres undefined)
27.1 µM | Cc1ccc2nc(CCc3ccc(NS(=O)(=O)c4cccc(Cl)c4C)cc3)[nH]c2c1
31 µM | COc1ccc(NC(=O)CS(=O)(=O)c2[nH]c(-c3ccc(C)cc3)nc2-c2ccccc2)cc1Cl
6.16 µM | COc1ccccc1-n1nnc(C(=O)Nc2ccc(Oc3ccccc3)cc2)c1C
> 50 µM (inactive) | O=S(=O)(c1cccc2cccnc12)N(CCc1ccccc1)C1CCN(CCc2ccc(Cl)cc2)CC1
> 50 µM (inactive) | COCCNC(=O)c1ccn(-c2ccc3ccc(-c4cnn(C)c4)cn23)n1
29.7 µM | Cc1ccc(CNC(=O)c2ccc(N3C(=O)[C@@H]4Cc5ccccc5CN4C3=O)cc2)cc1
> 50 µM (inactive) | Cc1nc(Nc2c3ccccc3nc3ccccc23)sc1C
> 50 µM (inactive) | COc1ccccc1-c1ccc(CN2[C@@H](c3ccccc3)C[C@@H]3NC(=O)CCC[C@H]32)cc1
21.5 µM | Cc1nn(CC(=O)Nc2ccc(Br)c3cccnc23)c(=O)c2ccccc12
23.7 µM | Fc1cccc(-n2cc(-c3noc(-c4ccccn4)n3)nn2)c1
4.44 µM | CCOc1ccc(NC(=O)Cn2c(=O)n(CCC(=O)NCc3ccco3)c(=O)c3ccccc32)cc1
9.05 µM | Cc1oc2ccc(NS(=O)(=O)c3ccc(F)cc3)cc2c1C(=O)OCc1ccccc1
42.2 µM | Cn1c(=O)[nH]c(=O)c2c1nc1n(CCc3ccccc3)c(-c3ccccc3)cn21
4.24 µM | CCOc1ccc(NC(=O)COc2cccc3c2CCN(CC)C3=O)cc1
12.5 µM | COc1ccc(C(=O)Nc2nc3n(n2)C(c2ccccc2)CC(=O)N3)cc1 (centres undefined)
> 50 µM (inactive) | COc1ccccc1CNC(=O)c1ccccc1OCc1ccccc1Cl
> 50 µM (inactive) | COc1ccc(C2CC(c3ccc(C)cc3)N(C(=O)C3CC3)c3ncnn32)cc1 (centres undefined)
> 50 µM (inactive) | COc1ccc(NC(=O)COc2cc(CSc3ccccc3)ncc2OC)cc1
21.6 µM | COc1cccc2c1OCC(C(=O)NCc1ccc(F)cc1)=C2
8.5 µM | COc1ccc(OC)c(NC(=O)C2Oc3ccccc3NC2=O)c1 (centres undefined)
2.11 µM | COc1ccc2ncc3c(-c4ccc(C)cc4)nn(-c4ccc(F)cc4)c3c2c1
> 50 µM (inactive) | COc1ccc(CC(=O)NCc2ccc3[nH]c(C)cc3c2)cc1
4.44 µM | CCOc1ccc(-c2noc(-c3nn(-c4cccc(OC)c4)ccc3=O)n2)cc1
18.8 µM | CN(Cc1ccccc1)S(=O)(=O)c1ccc(S(=O)(=O)N2CCN(C(=O)c3cccnc3)CC2)cc1

Second part, the compound before the results:

SMILES | IC50
O=S(c1ccc2ccccc2c1)c1cnns1 (centres undefined) | > 50 µM (inactive)
O=S(=O)(c1ccccc1Cl)N1CCN(c2ccc3nnc(-c4ccco4)n3n2)CC1 | > 50 µM (inactive)
Cc1noc(C)c1CN1CC[C@H]2O[C@H](C(=O)NCc3ccco3)CC[C@H]21 | > 50 µM (inactive)
CCc1ccc2c(c1)[C@]1(C(=O)N2)[C@@H]2C(=O)N(c3ccc(Cl)cc3Cl)C(=O)[C@@H]2[C@@H]2CCCN21 | > 50 µM (inactive)
C/C1=C\CCC(C)C(O)CC(O)C(C)C(O)CCC(C)C(O)CC2(O)OC(CC(OC(=O)CC(=O)O)CC(O)CC(O)CC(O)C(C)C(O)/C=C/C(C)C(C(C)CCCCCCCCN=C(N)N)OC1=O)CC(O)C2O (centres undefined) | 4.77 µM
O=C(NC1CCCC1)C1CC(=O)N(c2cccc(-c3noc(-c4cccs4)n3)c2)C1 (centres undefined) | 35.9 µM
O=C(Cn1ccc2ccc(N3CCOCC3)nc21)NCc1ccccc1F | > 50 µM (inactive)
O=C1C=C(O)c2c(O)cccc2C1=O | 15.7 µM
CC(C)(C)N=C1Nc2ncccc2NC12CCCN(C(=O)c1ccccc1)C2 (centres undefined) | > 50 µM (inactive)
CC(=O)N1CCOc2cc(S(=O)(=O)N3CCCC3c3cc(C)no3)ccc21 (centres undefined) | 22.9 µM
Cc1ccc2nc(NC(=O)CSc3nnc(-c4ccncc4)n3C3CC3)sc2c1 | 4.17 µM
Cc1cc(-c2nnc(SCC(=O)Nc3ccc(Br)c(C)c3)n2N)n[nH]1 | 15.6 µM
CCc1c(Cl)c(O)c(Cl)c(O)c1C(=O)O[C@H]1C(C)O[C@@H](OC/C2=C\C=C\CC(O)/C(C)=C/C(CC)C(O[C@@H]3OC(C)(C)[C@H](O)C(OC(=O)C(C)C)[C@@H]3O)/C(C)=C/C(C)=C/CC(C(C)O)OC2=O)[C@@H](OC)C1O (some centres undefined) | > 50 µM (inactive)
C=C[C@]1(C)C=C2C(=O)[C@]3(O)OC(=O)[C@@]4(CCCC(C)(C)[C@H]34)[C@@]2(O)CC1 | 27.6 µM
COc1cc(Cl)ccc1Nc1ncc(C(=O)Nc2cc(OC)c(OC)c(OC)c2)c2ccccc12 | < 0.05 µM
O=C1CN(C(=O)COC(=O)CCCN2C(=O)c3cccc4cccc(c34)C2=O)c2ccccc2N1 | 48.5 µM
O=C(OCCCN1C(=O)c2cccc3c(N4CCCCC4)ccc(c23)C1=O)c1ccccn1 | > 50 µM (inactive)
CC(C)N(C(=O)Cn1c(=O)[nH]c2ccccc21)c1ccccc1 | > 50 µM (inactive)
CCn1c(SCC(=O)c2c(N)n(CC(C)C)c(=O)n(C)c2=O)nnc1-c1ccccc1 | 13.9 µM
O=C(/C=C/C=C/C=C/C1CCCCC1)NC1=C[C@@](O)(/C=C/C=C/C=C/C(=O)NC2=C(O)CCC2=O)[C@@H]2O[C@@H]2C1=O | 3.62 µM
COc1ccc(OC)c(-c2c(C#N)c(C)nc3c2N2CCC3CC2)c1 | 1.8 µM
Cc1ccccc1Cn1ccc(NC(=O)c2noc(C)c2[N+](=O)[O-])n1 | 6.9 µM

SMILES | IC50
O=C(COC(=O)c1ccc(Cl)cc1)Nc1ccc2[nH]c(=O)[nH]c2c1 | 9.08 µM
O=C(CN(Cc1ccc(Cl)cc1)S(=O)(=O)c1ccc(Cl)cc1)N1CCOCC1 | > 50 µM (inactive)
COc1ccc(C)cc1NC(=O)C1CC(=O)Nc2nc3ccccc3n21 (centres undefined) | 24.4 µM
CC(C)N1CC2CN(Cc3ccc(Cl)cc3)CCN2Cc2ccccc21 (centres undefined) | > 50 µM (inactive)
Cc1sc(NC(=O)CN2CCc3ccccc3C2)nc1-c1ccc2c(c1)CCN2C(=O)C1CCCCC1 | > 50 µM (inactive)
Cc1ccc(C(=O)N2CCCC3(C2)Nc2cccnc2NC3=NC2CCCC2)s1 (centres undefined) | > 50 µM (inactive)
COC(=O)c1sc2ccccc2c1NC(=O)c1ccc(Br)s1 | 15.8 µM
CCc1ccc(C(C)NC(=O)C2CCN(c3ccc4nncn4n3)CC2)cc1 (centres undefined) | 16.4 µM
O=C(Cn1c(=O)n(-c2ccccc2)c(=O)c2ccc(C(=O)NCc3ccc4c(c3)OCO4)cc21)NCCC1=CCCCC1 | 15.7 µM
CCOCCCn1c(SCC(=O)Nc2ccccc2C(F)(F)F)nc2ccccc2c1=O | 17 µM
C/C=C(\Cl)C1=CC(=O)[C@]23C[C@H]2[C@@]2(C)CO[C@@]1(O)[C@@]3(O)O2 | > 50 µM (inactive)
O=C(c1ccsc1)N1CCC2(C1)Nc1cccnc1NC2=NC1CCCC1 (centres undefined) | > 50 µM (inactive)
CCOc1cc(C2C3=C(CC(C)(C)CC3=O)Nc3onc(C)c32)ccc1O (centres undefined) | 37.5 µM
COc1ccc(S(=O)(=O)N2CCc3ccccc32)cc1C(=O)Nc1ccc2[nH]c(=O)[nH]c2c1 | 9.13 µM
CC(CCc1ccccc1)NC(=O)C(=O)c1cn(CC(=O)N2CCOCC2)c2ccccc12 (centres undefined) | > 50 µM (inactive)
CCCc1nc2sc3c(NCCc4ccc(OC)c(OC)c4)ncnc3c2c2c1CCC2 | < 0.05 µM
O=C(Nc1cccc(Cl)c1)N1CCN(c2cc(C(F)(F)F)ccn2)CC1 | 25.1 µM
CC[C@H](C)C[C@H]1CC[C@](O)([C@](C)(O)C(=O)N[C@@H]2C(=O)N3NCCC[C@@H]3C(=O)N(O)[C@@H](C)C(=O)NCC(=O)N3NCCC[C@H]3C(=O)N(O)[C@H](C)C(=O)O[C@H]2C(C)C)O[C@@H]1C | 1.52 µM
c1csc(CCN2CCc3nc4cccnc4cc3C2)c1 | > 50 µM (inactive)
CC12c3ccc4c(c3C(=O)c3occ(c31)C(=O)CC2O)CCC4=O (centres undefined) | > 50 µM (inactive)
Cc1ccccc1Cn1cc(SCC(=O)Nc2ccc3c(c2)OCCO3)c2ccccc21 | 4.81 µM
Cc1ccc(NC(=O)C2CCN(c3cncnc3N3CCCC3)CC2)cc1 | 0.456 µM
